Laboratory results: PubChem BioAssay AID214 (DTP/NCI, 2004)
Records with an inconclusive call do not appear.

Tested on: B6C3F1 mice, colon carcinoma 38 s.c., T/C
Assay: NCI In Vivo Anticancer Drug Screen. Data for tumor model Colon Carcinoma 38 (subcutaneous) in B6C3F1 mice
Conditions: endpoint: median tumor weight (est.), higher = larger tumour
Method: The antitumor activity of compounds was measured in mice bearing transplantable tumors. Survival or tumor size were measured and the results are expressed as the measurement made in the treated group (T) divided by the measurement made in the vehicle treated control group (C). The tumor model used in this assay is Colon Carcinoma 38 (subcutaneous) in B6C3F1 mice

[1] = dose: 50.0 mg/kg/injection, schedule: Q07DX002 (ip), vehicle: water
[2] = dose: 25.0 mg/kg/injection, schedule: Q07DX002 (ip), vehicle: saline
[3] = dose: 50.0 mg/kg/injection, schedule: Q07DX002 (ip), vehicle: saline
[4] = dose: 100.0 mg/kg/injection, schedule: Q07DX002 (ip), vehicle: saline
[5] = dose: 200.0 mg/kg/injection, schedule: Q07DX002 (ip), vehicle: saline
[6] = dose: 400.0 mg/kg/injection, schedule: Q07DX002 (ip), vehicle: saline
[7] = dose: 200.0 mg/kg/injection, schedule: Q07DX002 (ip), vehicle: saline with Tween-80
[8] = dose: 400.0 mg/kg/injection, schedule: Q07DX002 (ip), vehicle: saline with Tween-80

CS(=O)(=O)OCCCCOS(C)(=O)=O
T/C (dose: 50.0 mg/kg/injection, schedule: Q01DX006 (ip), vehicle: saline with Tween-80): 16 % of control

CC1CC(C)CC(C)C(O)/C(C#N)=C/C=C/CC(C2CCCC2C(=O)O)OC(=O)CC(O)C(C)C1 (centres undefined)
T/C (dose: 4.0 mg/kg/injection, schedule: Q07DX002 (ip), vehicle: Klucel (hydroxypropylcellulose) (HPC)): 83 % of control | T/C (dose: 8.0 mg/kg/injection, schedule: Q07DX002 (ip), vehicle: Klucel (hydroxypropylcellulose) (HPC)): 81 % of control | T/C (dose: 16.0 mg/kg/injection, schedule: Q07DX002 (ip), vehicle: Klucel (hydroxypropylcellulose) (HPC)): 108 % of control | T/C (dose: 32.0 mg/kg/injection, schedule: Q07DX002 (ip), vehicle: Klucel (hydroxypropylcellulose) (HPC)): 115 % of control

[Na+]
T/C [1]: 100 % of control | T/C (dose: 100.0 mg/kg/injection, schedule: Q07DX002 (ip), vehicle: water): 57 % of control | T/C (dose: 200.0 mg/kg/injection, schedule: Q07DX002 (ip), vehicle: water): 68 % of control | T/C (dose: 400.0 mg/kg/injection, schedule: Q07DX002 (ip), vehicle: water): 58 % of control | T/C (dose: 800.0 mg/kg/injection, schedule: Q07DX002 (ip), vehicle: water): 63 % of control

O=P1(N(CCCl)CCCl)NCCCO1 (centres undefined)
T/C [2]: 44 % of control | T/C [3]: 52 % of control | T/C [4]: 13 % of control | T/C [5]: 7 % of control

Cc1ccc2nc(-c3ccc4nc(-c5ccc(N=Nc6ccc(-c7nc8ccc(-c9nc%10ccc(C)c(S(=O)(=O)O)c%10s9)cc8s7)cc6)cc5)sc4c3)sc2c1S(=O)(=O)O
T/C [3]: 72 % of control | T/C [4]: 101 % of control | T/C [5]: 84 % of control | T/C [6]: 82 % of control

COC(=O)C[C@](O)(CCC(C)(C)O)C(=O)O[C@@H]1C(OC)=C[C@]23CCCN2CCc2cc4c(cc2[C@H]13)OCO4
T/C (dose: 0.5 mg/kg/injection, schedule: Q07DX002 (ip), vehicle: saline): 117 % of control | T/C (dose: 1.0 mg/kg/injection, schedule: Q07DX002 (ip), vehicle: saline): 54 % of control | T/C (dose: 2.0 mg/kg/injection, schedule: Q07DX002 (ip), vehicle: saline): 40 % of control | T/C (dose: 4.0 mg/kg/injection, schedule: Q07DX002 (ip), vehicle: saline): 14 % of control

Cc1c2cc[n+](CCN3CCCCC3)cc2c(C)c2c1[nH]c1ccc(O)cc12
T/C (dose: 6.25 mg/kg/injection, schedule: Q07DX002 (ip), vehicle: suspension in saline): 83 % of control | T/C (dose: 12.5 mg/kg/injection, schedule: Q07DX002 (ip), vehicle: suspension in saline): 71 % of control | T/C (dose: 25.0 mg/kg/injection, schedule: Q07DX002 (ip), vehicle: suspension in saline): 62 % of control | T/C (dose: 50.0 mg/kg/injection, schedule: Q07DX002 (ip), vehicle: suspension in saline): 53 % of control | T/C (dose: 100.0 mg/kg/injection, schedule: Q07DX002 (ip), vehicle: suspension in saline): 34 % of control

O=c1n(CC2CO2)c(=O)n(CC2CO2)n1CC1CO1 (centres undefined)
T/C (dose: 6.25 mg/kg/injection, schedule: Q07DX002 (ip), vehicle: saline): 72 % of control | T/C (dose: 12.5 mg/kg/injection, schedule: Q07DX002 (ip), vehicle: saline): 67 % of control | T/C [2]: 87 % of control | T/C [3]: 31 % of control

C[C@@H]1CC[C@]2(C)CC[C@]3(C)C(=CC[C@@H]4[C@@]5(C)CC[C@@H](OC(=O)c6ccc(O)cc6)C(C)(C)[C@@H]5C[C@H](O)[C@]43C)[C@@H]2[C@H]1C(=O)O
T/C (dose: 0.12 mg/kg/injection, schedule: Q07DX002 (ip), vehicle: saline with Tween-80): 164 % of control | T/C (dose: 0.5 mg/kg/injection, schedule: Q07DX002 (ip), vehicle: saline with Tween-80): 49 % of control | T/C (dose: 1.0 mg/kg/injection, schedule: Q07DX002 (ip), vehicle: saline with Tween-80): 50 % of control | T/C (dose: 2.0 mg/kg/injection, schedule: Q07DX002 (ip), vehicle: saline with Tween-80): 50 % of control

COc1cc2c[n+](C)c3c(c2cc1OC)Cc1cc2c(cc1-3)OCO2
T/C (dose: 50.0 mg/kg/injection, schedule: Q07DX002 (ip), vehicle: saline with Tween-80): 94 % of control | T/C (dose: 100.0 mg/kg/injection, schedule: Q07DX002 (ip), vehicle: saline with Tween-80): 107 % of control | T/C [7]: 97 % of control | T/C [8]: 85 % of control

CC(=O)CC(=O)CCC(=O)O
T/C [3]: 87 % of control | T/C [4]: 88 % of control | T/C [5]: 86 % of control | T/C [6]: 89 % of control

Nc1nc(-c2ccccc2)c(Br)c(=O)[nH]1
T/C [7]: 115 % of control | T/C [8]: 87 % of control

O=C(O)Cc1cccc2c(=O)cc(Cc3ccccc3)oc12
T/C [4]: 60 % of control | T/C [5]: 111 % of control | T/C [6]: 122 % of control

COc1nc(C(Cl)(Cl)Cl)c(Cl)c(OC)c1Cl
T/C (dose: 50.0 mg/kg/injection, schedule: Q07DX002 (ip), vehicle: Klucel (hydroxypropylcellulose) (HPC)): 103 % of control | T/C (dose: 100.0 mg/kg/injection, schedule: Q07DX002 (ip), vehicle: Klucel (hydroxypropylcellulose) (HPC)): 109 % of control | T/C (dose: 200.0 mg/kg/injection, schedule: Q07DX002 (ip), vehicle: Klucel (hydroxypropylcellulose) (HPC)): 104 % of control | T/C (dose: 400.0 mg/kg/injection, schedule: Q07DX002 (ip), vehicle: Klucel (hydroxypropylcellulose) (HPC)): 47 % of control

COc1ccc(OC)c(Cc2cnc3nc(N)nc(N)c3c2C)c1
T/C (dose: 25.0 mg/kg/injection, schedule: Q07DX002 (ip), vehicle: water): 72 % of control | T/C [1]: 104 % of control
